PMC11673078, “DT-13 Mediates Ligand-Dependent Activation of PPARγ Response Elements In Vitro” (Biology, 2024)

Target: T1, PPARγ (Homo sapiens, UniProt P37231)
T1 construct: gene PPARG
T1 sequence (P37231 231-505 limits assumed): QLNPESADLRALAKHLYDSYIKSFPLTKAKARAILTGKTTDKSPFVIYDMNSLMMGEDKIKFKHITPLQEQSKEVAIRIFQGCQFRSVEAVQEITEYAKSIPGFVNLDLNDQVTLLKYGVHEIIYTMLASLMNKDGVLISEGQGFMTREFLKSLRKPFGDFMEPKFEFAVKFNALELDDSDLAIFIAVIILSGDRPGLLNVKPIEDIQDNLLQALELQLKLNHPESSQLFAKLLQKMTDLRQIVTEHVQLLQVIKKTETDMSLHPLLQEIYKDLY
Experiment: fluorescence polarization competitive binding assay (PolarScreen PPARγ Green)

SMILES | IC50 [nM]
CCCCC/C=C\C=C\C(O)CCCCCCCC(=O)O (centres unmarked) [9-hydroxyoctadecadienoic acid] | 1800
O=C(Nc1ccccc1)c1cc([N+](=O)[O-])ccc1Cl [GW9662] | 22.3
